The values that follow come from US20110112155A1, “METHODS FOR TREATING CANCER IN PATIENTS HAVING BREAST CANCER RESISTANCE PROTEIN OVEREXPRESSION” (Bristol-Myers Squibb Company, priority 2008, published 2011).

Molecules are shown by their SMILES. Read-outs that look alike come from different tables or passages of the source.

The subject of data set [1] is BCRP overexpressing HEK293/BCRP cell line. Briefly: Cell growth assay in BCRP overexpressing HEK293 cells. The class given is cell-based. On the procedure:
(§1) Cancer cell lines overexpressing TUBB3 were evaluated in vivo in mice for sensitivity to ixabepilone, docetaxel and vinorelbine. These include DU4475 and PAT21 breast, as well as H1155 and LX-1 lung cancer lines. BCRP overexpressing HEK-293 cell line was studied in vitro for sensitivity to ixabepilone, paclitaxel and mitoxantrone.
(§2) Compounds and reagents. Ixabepilone, docetaxel and mitoxantrone were solubilized in 100% DMSO at 10 mg/ml for in vitro studies.
(§3) Cell culture: HEK and HEK/BCRP cells were maintained in RPMI-1640 (Gibco) supplemented with 10% heat-inactivated fetal bovine serum and 25 mM HEPES at 37° C./5% CO2.
(§4) Cell growth assays. Cell growth assays were conducted in 6-well culture plates. Cells were plated at a density of 4×10^4 cells/well overnight. Compounds were then added (total DMSO content not exceeding 0.1%). Cell growth was determined by the direct counting of cell number, following trypsinization, using a Coulter Channelyzer.

Data set [2] relates to BCRP. The data set is described as above. Format: cell-based. As to conditions: human, HEK293 cells overexpressing BCRP (HEK293/BCRP); HEK293/BCRP cells, cell growth by cell counting. On the procedure: as §1, §2, §3, §4
The test system of data set [3] is H1155 lung tumor xenograft overexpressing TUBB3. Briefly: In vivo efficacy in TUBB3 overexpressing H1155 lung tumor xenograft. Details: species or system human. As to conditions: H1155 xenograft in nude mice, at maximum tolerated dose; activity = LCK>=1. On the procedure:
as §1
(§5) In vivo efficacy of ixabepilone was evaluated in TUBB3 overexpressing human breast (DU4475 and PAT21) and lung (H1155 and LX-1) tumor xenograft models • Tumor response was determined by measurement of tumors by caliper twice a week • Tumor weights were estimated using the formula
(§6) Tumor weight=(length×width2)/2 • Tumor response endpoint was expressed in terms of log cell kill (LCK) expressed as
(§7) LCK=(T−C)÷(3.32×TVDT) • T−C, the difference in the time (days) required for the treated tumors (T) to reach a predetermined target size compared with those of the control group (C)
(§8) Tumor volume doubling time=TVDT: Median time (days) for control tumors to reach target size−Median time (days) for control tumors to reach half the target size • Activity was defined as achievement of LCK≧1 • MTD—the dose level immediately above which excessive toxicity (i.e., more then one death) occurred • Statistical evaluations were performed using Gehan's generalized Wilcoxon test

Data set [4] concerns DU4475 breast tumor xenograft overexpressing TUBB3. Nature of the data set: In vivo efficacy in TUBB3 overexpressing DU4475 breast tumor xenograft. Further details: species or system human. As to conditions: DU4475 xenograft in nude mice, at maximum tolerated dose; activity = LCK>=1. How it is done:
as §1, §5, §6, §7, §8

The subject of data set [5] is Pat-21 breast tumor xenograft overexpressing TUBB3. Nature of the data set: In vivo efficacy in TUBB3 overexpressing PAT21 breast tumor xenograft. The following applies: Pat-21 xenograft in nude mice, at maximum tolerated dose; activity = LCK>=1. Further details: species or system human. How it is done: as §1, §5, §6, §7, §8
Data set [6] relates to LX-1 lung tumor xenograft overexpressing TUBB3. Briefly: In vivo efficacy in TUBB3 overexpressing LX-1 lung tumor xenograft. Further details: species or system human. As to conditions: LX-1 xenograft in nude mice, at maximum tolerated dose; activity = LCK>=1. How it is done: as §1, §5, §6, §7, §8
The test system of data set [7] is 4 xenografts overexpressing TUBB3 (DU4475, PAT21, H1155, LX-1). Nature of the data set: In vivo efficacy across the 4 human tumor xenografts overexpressing TUBB3. As to conditions: range across 4 TUBB3 overexpressing xenografts in nude mice, at MTD. How it is done: as §1, §5, §6, §7, §8
(In general: In xenograft studies the graft and the host belong to different species.)

The subject of data set [8] is human lung carcinoma cell line, H441. Briefly: BCRP-overexpression dependent resistance in H441 cells. The following applies: FIG. 8. Format: cell-based.
Data set [9] concerns paclitaxel-sensitive (A2780, HCT116, LS174T) and paclitaxel-resistant (HCT116/VM46, Pat-7, A2780Tax, Pat-21) human tumor models. Nature of the data set: Preclinical pharmacology studies of antitumor activity in human tumor models. Format: in vivo.
For data set [10], the system named is BCRP overexpressing cells. Nature of the data set: Detection of BCRP overexpressing cells by Hoescht 33342 dye and flow cytometry. Format: cell-based. As to conditions: flow cytometry, FIG. 7. The text has this:
Determination of BCRP Expression by Flow Cytometry.
Cells were acquired using CellQuest Pro on a FACSCalibur (BD) and analyzed using FlowJo software.
A general note: A flow cytometer gives signals particle by particle.

[11] abbreviates: HEK293/BCRP in comparison with the vector-transfected control line.

A word on the IC50: it is the concentration that gives 50% inhibition. A higher IC50 goes with lower potency. In turn, `CC(=O)O[C@H]1C(=O)[C@@]2(C)[C@H]([C@H](OC(=O)c3ccccc3)[C@]3(O)C[C@H](OC(=O)[C@H](O)[C@@H](NC(=O)c4ccccc4)c4ccccc4)C(C)=C1C3(C)C)[C@]1(OC(C)=O)CO[C@@H]1C[C@@H]2O` [paclitaxel] displayed a resistance factor in data set [1] (setting [11]) of 9.8 fold. In addition, the 50% inhibitory concentration (IC50) in data set [2] is 8.7 nM.

Take `CCC1=C[C@@H]2CN(C1)Cc1c([nH]c3ccccc13)[C@@](C(=O)OC)(c1cc3c(cc1OC)N(C)[C@H]1[C@@](O)(C(=O)OC)[C@H](OC(C)=O)[C@]4(CC)C=CCN5CC[C@]31[C@@H]54)C2` [Vinorelbine, vinorelbine]: the “Antitumor Efficacy (LCK)” value in data set [3] was found to be 0.1 LCK; in data set [4], 0.2 LCK; in data set [5] it was 0.3 LCK; in data set [6] it was 0.1 LCK. The “antitumor efficacy, range over the 4 xenografts” value in [7] is reported as 0.1-0.3 LCK.

As for `C/C(=C\c1csc(C)n1)[C@@H]1C[C@@H]2O[C@]2(C)CCC[C@H](C)[C@H](O)[C@@H](C)C(=O)C(C)(C)[C@@H](O)CC(=O)N1` [Ixabepilone, (1S,3S,7S,10R,11S,12S,16R)-7,11-dihydroxy-8,8,10,12,16-pentamethyl-3-[(1E)-1-methyl-2-(2-methyl-4-thiazolyl)ethenyl]-17-oxa-4-azabicyclo[14.1.0]heptadecane-5,9-dione], the “Antitumor Efficacy (LCK)” value in [3] is given as 4.2 LCK; in data set [4], 2.6 LCK; in data set [5], 1.6 LCK; in data set [6] it was 2.6 LCK. Also, in [1], the resistance factor is 1.9 fold. In [2], the 50% inhibitory concentration (IC50) is 4.1 nM. Also, the “ability to overcome BCRP-overexpression dependent resistance to taxanes” value in data set [8] is listed as “increased ability”. In data set [9] (oral administration, comparable to parenteral administration), the oral efficacy entry is listed as “orally efficacious”. The antitumor activity entry in data set [9] (paclitaxel-sensitive and paclitaxel-resistant human colon, ovarian and breast tumor models) was “very impressive and broad spectrum of antitumor activity”.

On to `O=C1c2c(O)ccc(O)c2C(=O)c2c(NCCNCCO)ccc(NCCNCCO)c21` [mitoxantrone], for which the resistance factor in [1] (setting [11]) is 4.1 fold. This molecule also had a half-maximal inhibitory concentration (IC50) in data set [2] of 26.4 nM.

On to `CC(=O)O[C@@]12CO[C@@H]1C[C@H](O)[C@@]1(C)C(=O)[C@H](O)C3=C(C)[C@@H](OC(=O)[C@H](O)[C@@H](NC(=O)OC(C)(C)C)c4ccccc4)C[C@@](O)([C@@H](OC(=O)c4ccccc4)[C@H]21)C3(C)C` [Docetaxel, docetaxel], for which the “Antitumor Efficacy (LCK)” value in data set [3] stood at 0.2 LCK; in data set [4], 0.9 LCK; in data set [5], 0.3 LCK; in [6], 0.5 LCK. For the same molecule, the “antitumor efficacy, range over the 4 xenografts” value in [7] was 0.2-0.9 LCK.

In the case of `COc1ccc2c3c([nH]c2c1)[C@H](C=C(C)C)N1C(=O)[C@@H]2CCCN2C(=O)[C@@H]1C3` [fumitremorgin C], in data set [1] (HEK293/BCRP cells), the “reversal of BCRP-mediated resistance to paclitaxel and mitoxantrone” value is on record as “reversed”. Besides, in data set [10], the “effect on BCRP overexpressing cells detected with Hoescht 33342 dye” value is reported as “abolition of BCRP overexpressing cells”.
